Laboratory results taken from US20190175528A1, “INHIBITION OF BIOFILM ORGANISMS” (NovaBiotics Limited, priority 2009, published 2019).
Numbered stars: 1 amine (or outer) side, 2 acyl side, 3 side chain; on linkers, the order of the positions; unused ones are H or OH. Ends that are not written are not given here. Peptide text beside a SMILES is read from it. Cysteamide = C(CS[*:3])N[*:1]

What was measured:
S. epidermidis ATCC12228 [1] = type: cell-based, Staphylococcus epidermidis; settings: ATCC12228, 24 h
Method: (§1) The bacterial inoculum was established by the dilution method from actively-growing cultures in Mueller-Hinton broth, standardized with 0.5 McFarland turbidity standard as described in the CLSI method M26-A.
(§2) To determine the prevention of biofilm formation, both the bacterial inoculum and the antimicrobial agents were added simultaneously to the plates. The plates were incubated at 37° C. for 24 h and the optical density was read at 625 nm on a microtitre plate reader (BioTek Powerwave XS, Winooski, USA). The MIC was obtained as the lowest concentration of antimicrobial showing total inhibition of bacterial growth.

S. aureus ATCC25923 [2] = type: cell-based, Staphylococcus aureus; settings: ATCC25923, 24 h
Method: as §1, §2

[3] = tested on: S. aureus DSM 11729 (MRSA); test: microbe, parasite or virus in culture; type: cell-based, Staphylococcus aureus; settings: DSM 11729, 24 h; for MIC pH5.5, 320 mM NaCl, S. aureus 11729 / MIC pH5.5, S. aureus 11729: pH 5.5
Method: as §1
as §2, with “growth. […]” for “growth.”
(§3) FIC=MICA[combination]/MICA[alone]+MICB[combination]/MICB[alone] […]
(§4) In order to assess for the prevention of biofilm formation by both Gram-positive and Gram-negative bacteria, the bacterial inoculum and antimicrobial agents were added simultaneously in the plates. The range of concentrations of antimicrobial agents was 0-500 μg/ml NP108 and 0-320 μg/ml cysteamine against the Gram-negative bacteria P. aeruginosa ATCC BAA-47 and 0-1000 μg/ml NP108 and 0-320 μg/ml cysteamine against the Gram-positive MRSA.

P. aeruginosa DSMZ1128 [4] = type: cell-based, Pseudomonas aeruginosa; settings: DSMZ1128, 24 h
Method: as §1, §2

P. aeruginosa DSMZ1299 [5] = type: cell-based, Pseudomonas aeruginosa; settings: for MIC at pH 7, P. aeruginosa D5MZ1299: DSMZ1299, 24 h
Method: as §1, §2

[6] = tested on: P. aeruginosa ATCC BAA-47; test: microbe, parasite or virus in culture; type: cell-based, Pseudomonas aeruginosa; settings: ATCC BAA-47, 24 h; for MIC pH5.5, 320 mM NaCl, P. aeruginosa ATCCBAA-47 / MIC pH5.5, P. aeruginosa ATCCBAA-47: pH 5.5
Method: as §1
as §2, with “growth. […]” for “growth.”
as §3, §4

S. epidermidis ATCC12228 [7] = settings: ATCC12228, pH 7
S. aureus ATCC25923 [8] = settings: ATCC25923, pH 7
[9] = tested on: S. aureus DSM 11729 (MRSA); settings: for MBC at pH5.5, S. aureus 11729 / MBC pH5.5, 320 mM NaCl, S. aureus 11729: DSM 11729, pH 5.5; for MBC following MIC at pH 7, S. aureus DSMZ11729: DSM 11729, pH 7
P. aeruginosa DSMZ1128 [10] = settings: DSMZ1128, pH 7
P. aeruginosa DSMZ1299 [11] = settings: DSMZ1299, pH 7
[12] = tested on: P. aeruginosa ATCC BAA-47; settings: for MBC at pH5.5, P. aeruginosa ATCCBAA-47 / MBC pH5.5, 320 mM NaCl, P. aeruginosa ATCCBAA-47: ATCC BAA-47, pH 5.5; for MBC following MIC at pH 7, P. aeruginosa ATCCBAA-47: ATCC BAA-47, pH 7

| Compound | MIC at pH 7, S. epidermidis ATCC12228 (S. epidermidis ATCC12228 [1]) [μg/ml] | MIC at pH 7, S. aureus ATCC25923 (S. aureus ATCC25923 [2]) [μg/ml] | MIC pH5.5, 320 mM NaCl, S. aureus 11729 [3] [μg/ml] | MIC pH5.5, S. aureus 11729 [3] [μg/ml] | MIC at pH 7, S. aureus DSMZ11729 [3] [μg/ml] | MIC at pH 7, P. aeruginosa DSMZ1128 (P. aeruginosa DSMZ1128 [4]) [μg/ml] | MIC at pH 7, P. aeruginosa D5MZ1299 (P. aeruginosa DSMZ1299 [5]) [μg/ml] | MIC pH5.5, 320 mM NaCl, P. aeruginosa ATCCBAA-47 [6] [μg/ml] | MIC pH5.5, P. aeruginosa ATCCBAA-47 [6] [μg/ml] | MIC at pH 7, P. aeruginosa ATCCBAA-47 [6] [μg/ml] | MBC following MIC at pH 7, S. epidermidis ATCC12228 (S. epidermidis ATCC12228 [7]) | MBC following MIC at pH 7, S. aureus ATCC25923 (S. aureus ATCC25923 [8]) [μg/ml] | MBC at pH5.5, S. aureus 11729 [9] [μg/ml] | MBC pH5.5, 320 mM NaCl, S. aureus 11729 [9] [μg/ml] | MBC following MIC at pH 7, S. aureus DSMZ11729 [9] | MBC following MIC at pH 7, P. aeruginosa DSMZ1128 (P. aeruginosa DSMZ1128 [10]) | MBC following MIC at pH 7, P. aeruginosa DSMZ1299 (P. aeruginosa DSMZ1299 [11]) | MBC at pH5.5, P. aeruginosa ATCCBAA-47 [12] [μg/ml] | MBC pH5.5, 320 mM NaCl, P. aeruginosa ATCCBAA-47 [12] [μg/ml] | MBC following MIC at pH 7, P. aeruginosa ATCCBAA-47 [12] [μg/ml] | also measured |
| --- | --- | --- | --- | --- | --- | --- | --- | --- | --- | --- | --- | --- | --- | --- | --- | --- | --- | --- | --- | --- | --- |
| N=C(N)NCCC[C@H](NC(=O)[C@H](CCCCN)NC(=O)[C@@H]1CCCN1C(=O)[C@H](CCCNC(=N)N)NC(=O)[C@H](CCCNC(=N)N)NC(=O)[C@@H]1CCCN1C(=O)[C@H](CCCCN)NC(=O)[C@H](CCCNC(=N)N)NC(=O)[C@H](CCCNC(=N)N)NC(=O)[C@@H]1CCCN1C(=O)[C@H](CCCCN)NC(=O)[C@@H](N)CCCCN)C(=O)N[C@@H](CCCCN)C(=O)N[C@@H](CCCCN)C(=O)NCCS [NP449, KKPRRKPRRPKRKK-cysteamine] (H-KKPRRKPRRPKRKK-Cysteamide; N-terminus assumed) | 31.25 | 250 | >500 | >500 | 125 | 250 | 125 | >500 | >500 | 250 | 125 μg/ml | >500 | >500 | >500 | 250 μg/ml | 500 (2) μg/ml | 250 (2) μg/ml | >500 | >500 | >500 | – |
| N=C(N)NCCC[C@H](NC(=O)[C@H](CCCCN)NC(=O)[C@@H]1CCCN1C(=O)[C@H](CCCNC(=N)N)NC(=O)[C@H](CCCNC(=N)N)NC(=O)[C@@H]1CCCN1C(=O)[C@H](CCCCN)NC(=O)[C@H](CCCNC(=N)N)NC(=O)[C@H](CCCNC(=N)N)NC(=O)[C@@H]1CCCN1C(=O)[C@H](Cc1c[nH]cn1)NC(=O)[C@@H](N)Cc1c[nH]cn1)C(=O)N[C@@H](Cc1c[nH]cn1)C(=O)N[C@@H](Cc1c[nH]cn1)C(=O)NCCS [NP451, HHPRRKPRRPKRHH-cysteamine] (H-HHPRRKPRRPKRHH-Cysteamide; N-terminus assumed) | 125 | 500 | >500 | >500 | 500 | >500 | >500 | >500 | >500 | >500 | 125 μg/ml | >500 | >500 | >500 | >500 μg/ml | >500 μg/ml | >500 μg/ml | 250 | >500 | >500 | Exp#3, P. aeruginosa DSMZ1299 (quantity not clearly headed) (P. aeruginosa DSMZ1299 [5]): >500 µg/mL |
| N=C(N)NCCC[C@H](NC(=O)[C@H](CCCNC(=N)N)NC(=O)[C@H](CCCNC(=N)N)NC(=O)[C@H](CCCNC(=N)N)NC(=O)[C@@H](N)CCCNC(=N)N)C(=O)NCCS [NP457, RRRRR-cysteamine] (H-RRRRR-Cysteamide; N-terminus assumed) | 31.25 | 125 | >500 | >500 | 125 | >500 | >500 | >500 | >500 | 250 | 125 (2) μg/ml | 62.5 | >500 | >500 | 125 (2) μg/ml | >500 μg/ml | >500 μg/ml | >500 | >500 | >500 | Exp#3, P. aeruginosa DSMZ1299 (quantity not clearly headed) (P. aeruginosa DSMZ1299 [5]): >500 µg/mL |
| N=C(N)NCCC[C@H](NC(=O)[C@H](CCCNC(=N)N)NC(=O)[C@H](CCCNC(=N)N)NC(=O)[C@H](CCCNC(=N)N)NC(=O)[C@@H](N)CCCNC(=N)N)C(=O)N[C@@H](Cc1c[nH]cn1)C(=O)N[C@@H](Cc1c[nH]cn1)C(=O)NCCS [NP458, RRRRRHH-cysteamine] (H-RRRRRHH-Cysteamide; N-terminus assumed) | 31.25 | 250 | >500 | >500 | 250 | 250 | 125 | >500 | >500 | 62.5 | 500 μg/ml | 125 | >500 | >500 | 250 μg/ml | >500 μg/ml | >500 μg/ml | >500 | >500 | >500 | – |
| HHHFRFFFRFRRR [NP438, HHHFRFFFRFRRR] | <7.8 | >500 | >500 | >500 | >500 | >500 | 500 | 62.5 | 125 | >500 | 125 μg/ml | >500 | >500 | >500 | >500 μg/ml | >500 μg/ml | >500 μg/ml | >500 | >500 | >500 | – |
